Assay results reported in patent US11713307B2, “Heteroaryl-biphenyl amides for the treatment of PD-L1 diseases” (CHEMOCENTRYX, INC., priority 2019, dated 2023).

Biological target: human PD-L1 (Homo sapiens (Human), UniProt Q9NZQ7)
Experiment: Enzyme-Linked Immunosorbent Assay—ELISA (PD-1/PD-L1 binding)
Settings: plates coated with human PD-L1; Human PD-1 and biotin added; absorbance at 450 nm
Protocol: 96 Well plates were coated with 1 μg/mL of human PD-L1 (obtained from R&D) in PBS overnight at 4° C. The wells were then blocked with 2% BSA in PBS (W/V) with 0.05% TWEEN-20 for 1 hour at 37° C. The plates were washed 3 times with PBS/0.05% TWEEN-20 and the compounds were serial diluted (1:5) in dilution medium and added to the ELISA plates. Human PD-1 and biotin 0.3 μg/mL (ACRO Biosystems) were added and incubated for 1 hour at 37° C. then washed 3 times with PBS/0.05% TWEEN-20. A second block was performed with 2% BSA in PBS (W/V)/0.05% TWEEN-20 for 10 min at 37° C. and the plates were washed 3 times with PBS/0.05% TWEEN-20. Streptavidin-HRP was added for 1 hour at 37° C. then the plates were washed 3 times with PBS/0.05% TWEEN-20. TMB substrate was added and reacted for 20 min at 37° C. A stop solution (2 N aqueous H2SO4) was added. The absorbance was read at 450 nm using a micro-plate spectrophotometer. The results are shown in Table 1: IC50 values are provided as follows: from 1000 to 10,000 nM (+); from 10 up to 1000 nM (++); less than 10 nM (+++).

Chain of human PD-L1 (Q9NZQ7 19-239): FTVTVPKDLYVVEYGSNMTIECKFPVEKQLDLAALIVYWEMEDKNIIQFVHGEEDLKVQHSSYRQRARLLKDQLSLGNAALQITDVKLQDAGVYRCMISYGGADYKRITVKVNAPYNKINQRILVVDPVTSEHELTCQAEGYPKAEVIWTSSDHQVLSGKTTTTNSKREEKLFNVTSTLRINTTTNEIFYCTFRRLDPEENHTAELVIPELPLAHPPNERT

## COc1nc(-c2cccc(-c3cccc(NC(=O)c4c[nH]c(=O)n(C)c4=O)c3C)c2Cl)ccc1CNC[C@@H]1CCC(=O)N1 [Compound 1.065]
  IC50: < 10 nM

## COc1cc(-c2cccc(-c3cccc(NC(=O)c4cn(C)c(=O)n(C)c4=O)c3Cl)c2Cl)ncc1CN1CC(C)(C(=O)O)C1 [Compound 1.083]
  IC50: < 10 nM

## COc1nc(-c2cccc(-c3cccc(NC(=O)c4cn(C)c(=O)n(C)c4=O)c3Cl)c2Cl)ccc1CNC[C@@H](O)CO [Compound 1.030]
  IC50: < 10 nM

## COc1nc(-c2cccc(-c3cccc(NC(=O)c4cn(C)c(=O)n(C)c4=O)c3Cl)c2Cl)cnc1CN[C@@H]1CCOC[C@@H]1O [Compound 1.005]
  IC50: < 10 nM

## COc1nc(-c2cccc(-c3cccc(NC(=O)c4cccn(C)c4=O)c3Cl)c2Cl)ccc1CNC[C@@H]1CCC(=O)N1 [Compound 1.069]
  IC50: < 10 nM

## COc1nc(-c2cccc(-c3cccc(NC(=O)c4cn(C)c(=O)n(C)c4=O)c3C)c2Cl)ccc1CN[C@H]1CCOC[C@H]1O [Compound 1.042]
  IC50: < 10 nM

## CCc1nc(-c2cccc(-c3cccc(NC(=O)c4cn(C)c(=O)n(C)c4=O)c3Cl)c2Cl)ccc1CN[C@@H]1CCOC[C@@H]1O [Compound 1.075]
  IC50: < 10 nM

## COc1nc(-c2cccc(-c3cccc(NC(=O)c4cn(C)c(=O)n(C)c4=O)c3Cl)c2Cl)cnc1CN[C@H]1CCOC[C@H]1O [Compound 1.004]
  IC50: < 10 nM

## Cn1cc(C(=O)Nc2cccc(-c3cccc(-c4ccc(CNC[C@@H]5CCC(=O)N5)c(O)n4)c3Cl)c2Cl)c(=O)n(C)c1=O [Compound 1.033]
  IC50: 10 to 1000 nM

## CCc1nc(-c2cccc(-c3cccc(NC(=O)c4cn(C)c(=O)n(C)c4=O)c3Cl)c2Cl)ccc1CN1CC(O)C1 [Compound 1.072]
  IC50: 10 to 1000 nM

## COc1nc(-c2cccc(-c3cccc(NC(=O)c4cn(C)c(=O)n(C)c4=O)c3Cl)c2Cl)ccc1CNC[C@@H](C)O [Compound 1.032]
  IC50: < 10 nM

## COc1nc(-c2cccc(-c3cccc(NC(=O)c4cn(C)c(=O)n(C)c4=O)c3C)c2Cl)ccc1CN1CC(O)C1 [Compound 1.095]
  IC50: < 10 nM

## COc1nc(-c2cccc(-c3cccc(NC(=O)c4cn(C)c(=O)n(C)c4=O)c3Cl)c2Cl)cnc1CN1CC(O)C1 [Compound 1.098]
  IC50: < 10 nM

## COc1nc(-c2cccc(-c3cccc(NC(=O)c4cn(C)c(=O)n(C)c4=O)c3C)c2Cl)ccc1CN1CC(C)(C(=O)O)C1 [Compound 1.053]
  IC50: < 10 nM

## COc1nc(-c2cccc(-c3cccc(NC(=O)c4cn(C)c(=O)n(C)c4=O)c3C)c2Cl)ccc1CN1CC2(CCNC2=O)C1 [Compound 1.092]
  IC50: < 10 nM

## COc1cc(-c2cccc(-c3cccc(NC(=O)c4cn(C)c(=O)n(C)c4=O)c3Cl)c2Cl)ncc1CN1CC(O)C1 [Compound 1.080]
  IC50: 10 to 1000 nM

## COc1nc(-c2cccc(-c3cccc(NC(=O)c4cn(C)c(=O)n(C)c4=O)c3C)c2Cl)ccc1CNCC1(O)CC1 [Compound 1.022]
  IC50: 1000 to 10000 nM

## COc1nc(-c2cccc(-c3cccc(NC(=O)c4cn(C)c(=O)n(C)c4=O)c3C)c2Cl)ccc1CN1CC[C@](C)(O)C1 [Compound 1.019]
  IC50: < 10 nM

## COc1nc(-c2cccc(-c3cccc(NC(=O)c4cn(C)c(=O)n(C)c4=O)c3C)c2Cl)ccc1CN[C@@H]1CCOC[C@@H]1O [Compound 1.008]
  IC50: < 10 nM

## COc1nc(-c2cccc(-c3cccc(NC(=O)c4cn(C)c(=O)n(C)c4=O)c3C)c2Cl)ccc1CN1CC2(CCC(=O)N2)C1 [Compound 1.096]
  IC50: < 10 nM

## COc1nc(-c2cccc(-c3cccc(NC(=O)c4cn(C)c(=O)n(C)c4=O)c3Cl)c2Cl)cnc1CN1CCCC[C@@H]1C(=O)O [Compound 1.094]
  IC50: < 10 nM

## CCOc1nc(-c2cccc(-c3cccc(NC(=O)c4cn(C)c(=O)n(C)c4=O)c3C)c2Cl)ccc1CNC[C@@H]1CCC(=O)N1 [Compound 1.047]
  IC50: < 10 nM

## COc1nc(-c2cccc(-c3cccc(NC(=O)c4cn(C)c(=O)n(C)c4=O)c3F)c2Cl)ccc1CNC[C@@H]1CCC(=O)N1 [Compound 1.059]
  IC50: < 10 nM

## COc1nc(-c2cccc(-c3cccc(NC(=O)c4cn(C)c(=O)n(C)c4=O)c3C)c2Cl)ccc1CNCC1(C)CCC(=O)N1 (stereo not shown) [Compound 1.015]
  IC50: < 10 nM

## COc1nc(-c2cccc(-c3cccc(NC(=O)c4cn(C)c(=O)n(C)c4=O)c3Cl)c2Cl)ccc1CN1CC(NS(C)(=O)=O)C1 [Compound 1.073]
  IC50: < 10 nM

## COc1nc(-c2cccc(-c3cccc(NC(=O)c4cn(C)c(=O)n(C)c4=O)c3Cl)c2Cl)ccc1CN[C@@](C)(CO)C(=O)O [Compound 1.070]
  IC50: < 10 nM

## COc1nc(-c2cccc(-c3cccc(NC(=O)c4cn(C)c(=O)n(C)c4=O)c3C)c2Cl)ccc1CN1CC(C(C)(C)O)C1 [Compound 1.041]
  IC50: < 10 nM

## COc1nc(-c2cccc(-c3cccc(NC(=O)c4cn(C)c(=O)n(C)c4=O)c3Cl)c2Cl)ccc1CNC[C@@H]1CCC(=O)N1 [Compound 1.088]
  IC50: < 10 nM

## COc1nc(-c2cccc(-c3cccc(NC(=O)c4cn(C)c(=O)n(C)c4=O)c3C)c2Cl)ccc1CNC[C@@H]1CCC(=O)N1 [Compound 1.006]
  IC50: < 10 nM

## COc1cc(-c2cccc(-c3cccc(NC(=O)c4cn(C)c(=O)n(C)c4=O)c3C)c2Cl)cnc1CN[C@@H]1CCOC[C@@H]1O [Compound 1.009]
  IC50: < 10 nM

## COc1nc(-c2cccc(-c3cccc(NC(=O)c4cn(C)c(=O)n(C)c4=O)c3C)c2Cl)ccc1CNC[C@@H](C)O [Compound 1.028]
  IC50: < 10 nM

## CCc1nc(-c2cccc(-c3cccc(NC(=O)c4cn(C)c(=O)n(C)c4=O)c3C)c2Cl)ccc1CNC[C@@H]1CCC(=O)N1 [Compound 1.054]
  IC50: < 10 nM

## COc1nc(-c2cccc(-c3cccc(NC(=O)c4cn(C)c(=O)n(C)c4=O)c3Cl)c2Cl)cnc1CN1CC2(CCC(=O)N2)C1 [Compound 1.101]
  IC50: < 10 nM

## COc1nc(-c2cccc(-c3cccc(NC(=O)c4cn(C)c(=O)n(C)c4=O)c3C)c2Cl)ccc1CN1CCC(O)CC1 [Compound 1.046]
  IC50: < 10 nM

## COc1nc(-c2cccc(-c3cccc(NC(=O)c4cn(C)c(=O)n(C)c4=O)c3C)c2Cl)ccc1CNCC(C)(C)O [Compound 1.055]
  IC50: < 10 nM

## COc1nc(-c2cccc(-c3cccc(NC(=O)c4cn(C)c(=O)n(C)c4=O)c3Cl)c2Cl)ccc1CNC[C@H](C)O [Compound 1.034]
  IC50: < 10 nM

## COc1nc(-c2cccc(-c3cccc(NC(=O)c4cn(C)c(=O)n(C)c4=O)c3Cl)c2Cl)cnc1CN1CC(C(=O)O)C1 [Compound 1.100]
  IC50: < 10 nM

## COc1nc(-c2cccc(-c3cccc(NC(=O)c4cn(C)c(=O)n(C)c4=O)c3C)c2Cl)ccc1CNCCO [Compound 1.056]
  IC50: < 10 nM

## COc1nc(-c2cccc(-c3cccc(NC(=O)c4cn(C)c(=O)n(C)c4=O)c3C)c2Cl)ccc1CNCC(=O)O [Compound 1.051]
  IC50: < 10 nM

## COc1nc(-c2cccc(-c3cccc(NC(=O)c4cn(C)c(=O)n(C)c4=O)c3C)c2Cl)cnc1CNC[C@@H]1CCC(=O)N1 [Compound 1.079]
  IC50: < 10 nM

## COc1nc(-c2cccc(-c3cccc(NC(=O)c4cncn(C)c4=O)c3Cl)c2Cl)ccc1CNC[C@@H]1CCC(=O)N1 [Compound 1.060]
  IC50: < 10 nM

## COc1nc(-c2cccc(-c3cccc(NC(=O)c4cn(C)c(=O)n(C)c4=O)c3Cl)c2Cl)ccc1CNCCO [Compound 1.039]
  IC50: < 10 nM

## COc1nc(-c2cccc(-c3cccc(NC(=O)c4cn(C)c(=O)n(C)c4=O)c3C)c2C)ccc1CNC[C@@H]1CCC(=O)N1 [Compound 1.062]
  IC50: < 10 nM
